Here are results for one compound from patent publication US20210177952A1, “METHOD AND COMPOSITION FOR STIMULATING IMMUNE RESPONSE” (BeyondSpring Pharmaceuticals, Inc., priority 2018, published 2021).

The format of data set [1] is in vivo, Mouse, C57BL6. Particulars: 15 mg/kg IP BID, subgroup I group 3, three animals. As to the method: Detailed Clinical Observations: Scheduled detailed clinical observations were not conducted on this study. Unscheduled clinical observations were made on mice flagged by trained personnel during daily moribundity/morbidity checks for any reason.
The remaining subgroups II-V, group 3 animals were dosed at 10 mg/kg (indicated as “*” in Tables 3-4 above). The experimental observations described below in this Example were focused on the lower dose (10-mg/kg) mice.

Another data set relates to ovalbumin IgG1. The data set can be described thus: Serum anti-ovalbumin IgG1 ELISA after OVA/CFA immunization of mice. Format: in vivo, Mouse, C57BL6. The settings on record: for anti-OVA IgG1 concentrations in serum: 7.5 and 10 mg/kg IP BID for a single day, 3, 6, 14 or 28 days after immunization, Day 30 and Day 62 samples. The protocol:
A study was performed to evaluate the effect of plinabulin on boosting B-cell response to immunization. Samples were prepared using an emulsion of complete Freund's adjuvant (CFA) with the foreign protein ovalbumin (OVA), each with varying concentrations of plinabulin (plinabulin doses range from 0.01 mg to 30 mg), and the control was prepared with no plinabulin added. Normal healthy mice were immunized by subcutaneous injection of the CFA+OVA emulsion +/−plinabulin, and/or intraperitoneal injection of ALUM+OVA adjuvant +/−plinabulin (n=5 mice per plinabulin dose group). At different time points as discussed below in this Example, the animals were bled to collect serum for evaluating the concentration of IgG that binds OVA in the serum.
DOSE PREPARATION OF OVALBUMIN EMULSIONS IN COMPLETE FREUND'S ADJUVANT: EndoFit™ Ovalbumin Kit (InvivoGen, USA), containing 10 mg powder in one glass vial and 10 mL of sterile endotoxin-free physiological water in one glass vial, and CFA 10 mL in one glass vial were received in good condition and stored at 2-8° C. until Day 1. The sterile endotoxin-free saline solution was allowed to reach room temperature before use. Inside a BSL2 cabinet, 5 mL sterile water was added into the vial containing 10 mg of OVA and gently agitated to obtain a homogenous 2 mg/mL OVA solution. To 2.5 mL of CFA, 2.5 mL of OVA solution was added; and the mixture was emulsified by vigorously mixing into two connected 10 mL locking syringes to prepare a 1 mg/mL OVA/CFA emulsion. The emulsification was kept chilled by placing the apparatus into crushed ice for 5 minutes, then mixing and cooling was repeated an additional two times. Stability of the emulsion was tested by adding a drop into water to verify that the emulsion would not dissipate. The emulsion was transferred into five 1 mL syringes for injection and kept cool on crushed ice until immunization. The emulsification processes were repeated with an additional 2.5 mL of OVA solution and 2.5 mL of CFA during immunization of animals to use within 4 hours of preparation.
DOSE PREPARATION OF TEST ARTICLES: Plinabulin solution (Plin-A) at a 0.75 mg/mL was prepared on each day of dosing. Plinabulin powder (3 mg) was weighed into a separate light protected amber vial at room temperature. Using a micropipette, 284 μL of Tween-80 was added to the amber vial and vortex for 1 minute. 1,020 μL of propylene glycol was added to the amber vial and vortexed for 15 minutes, then sonicated in a water bath for 30 minutes. Finally, 2,696 μL of 5% dextrose in water was added to the solution and vortexed for 3 minutes to achieve 4 mL of a 0.75 mg/mL plinabulin solution. Plinabulin solution (Plin-B) at a 1.0 mg/mL was prepared on each day of dosing. Plinabulin powder (3 mg) was weighed into a separate light protected amber vial at room temperature. Using a micropipette, 213 μL of Tween-80 was added to the amber vial and vortex for 1 minute. 765 μL of propylene glycol was added to the amber vial and vortex for 15 minutes, then sonicated in a water bath for 30 minutes. Finally, 2,022 μL of 5% dextrose in water was added to the solution and vortexed for 3 minutes to achieve 3 mL of a 1.0 mg/mL plinabulin solution.
ANTI-OVALBUMIN ASSAY: Mouse anti-OVA IgG1 ELISA kits (Cayman Chemical, USA) were purchased to perform the assay. Serum samples from Day 30 were assayed in 1-to-2,000, 1-to-6,000 and 1-to-20,000 dilution. Serum samples from Day 62 were assayed in 1-to-2,000 and 1-to-20,000 dilution. […]

Regarding `CC(C)(C)c1[nH]cnc1/C=c1\[nH]c(=O)/c(=C/c2ccccc2)[nH]c1=O` [Plinabulin, (3Z,6Z)-3-Benzylidene-6-{[5-(2-methyl-2-propanyl)-1H-imidazol-4-yl]methylene}-2,5-piperazinedione], the “clinical observations within 1 day following test article administration” value in data set [1] is “decreased activity, irregular breathing, dehydration, and body cold to touch”. Further, the “anti-OVA IgG1 concentrations in serum” value in the data set on ovalbumin IgG1 is “inhibitory effects on anti-OVA in 4 out of 5 subgroups”; with ovalbumin IgG1 (listed as plinabulin) it was “significantly reduced, or tended to be reduced”. In addition, the “concentration of anti-OVA IgG in serum versus immunization without plinabulin” value with ovalbumin IgG1 (mice immunized with CFA+OVA or ALUM+OVA +/- plinabulin) is on record as “higher concentrations of anti-OVA IgG”. Also, the “OVA IgG1 production in serum on Day 62” value with ovalbumin IgG1 (subgroup 1: 7.5 mg/kg IP BID, 1 hour after immunization, Day 62) was “significantly increased OVA IgG1 production”. Besides, the “production of OVA IgG1 in serum on Day 30” value in the data set on ovalbumin IgG1 (subgroup 1: plinabulin IP BID 3 hours apart, 1 hour after OVA/CFA immunization, Day 30) is listed as “dose-dependently increased the production of OVA IgG1 on Day 30 without reaching statistical significance”.
